In article PMC8345035, “Targeted Alpha-Particle Radiotherapy and Immune Checkpoint Inhibitors Induces Cooperative Inhibition on Tumor Growth of Malignant Melanoma” (Cancers, 2021) one finds tissue uptake and complete response rate data, which are given here for three molecules.

Where two headings read alike, the source gives them in different places. Where a SMILES comes first, the peptide text is derived from it. Bridges are numbered along the chain shown (N, C = ends). Triazole bridges read from a SMILES are 1,4-linked. Side-chain parts run from the residue outwards. [ ]: non-standard residue; d: D form. The star is where a group is joined. X1 = NC(=O)CN1CCN(CC(=O)O)CCN(CC(=O)*)CCN(CC(=O)O)CC1; Lys(N3) = [N-]=[N+]=NCCCC[C@H](N)C(=O)O; Nle = CCCC[C@H](N)C(=O)O; Pra = C#CC[C@H](N)C(=O)O; AEEA = NCCOCCOCC(=O)O

Series [1] can be described thus: In vivo biodistribution of [^203Pb]VMT01 in B16-F10 melanoma xenograft model. Particulars: athymic nude, mouse, intravenous, 74 KBq, total radioactivity, tail vein; for tissue uptake at 0.5 h: 0.5 h post-injection; for tissue uptake at 1.5 h: 1.5 h post-injection; for tissue uptake at 3 h: 3 h post-injection; for tissue uptake at 6 h: 6 h post-injection; for tissue uptake at 24 h: 24 h post-injection. Set-up: species or system athymic nude mice. How it is done:
Radiolabeling of VMT01 was carried out according to published methods. Briefly, ^203Pb^2+ was purified on 50 mg Pb-resin (Eichrom Technologies, Lisle, IL, USA) and eluted into reaction vessel using 0.5 M sodium acetate (NaOAc) pH = 6 buffer. The reaction vessel contained 20 nmole VMT01 peptide precursor and 0.29 mL of 0.5 M sodium acetate (NaOAc) pH = 4 buffer to adjust final pH to 5.4. The reaction solution was heated under 85 °C for 30 min. After reactions, free ^203Pb was removed by StrataX C-18 SPE cartridge (Phenomenex, Torrance, CA, USA) and final products were collected in 50% EtOH in saline. Biodistribution of [^203Pb]VMT01 was determined in a B16-F10 murine melanoma xenograft model in athymic nude mice. B16-F10 xenograft was developed by the subcutaneous (SC) injection of 2 × 10^5 B16-F10 cells at the left shoulder in 100 µL 50% Matrigel in complete growth media. Then, 74 KBq of [^203Pb]VMT01 (5.4 pmole) were administered via tail vein injection (2 male and 2 female at each time point) in 100 µL of saline with less than 10% EtOH content. At 0.5, 1.5, 3, 6, and 24 h post-injection, animals were euthanized, and organs of interest were harvested and weighed. Radioactivity in tumor and organs was measured on a Cobra II automated gamma counter. […] The value for 48 h was extrapolated from the last 3 time points (3, 6, and 24 h) of the biodistribution by one phase exponential decay with least squares fitting method (GraphyPrism V7). The average kidney volume was assumed to be 0.33 cm^3 for C57BL6 mice. […] The voxel size of the model was adjusted to have the same kidney volume as the averaged value (0.33 cm^3). The elemental composition of the kidney and the mass density was assumed to be identical as the human adults’ values obtained from the International Commission on Radiation Units and measurements (ICRU) report 46 [52].

A further series has as its system metastatic melanoma. Set-up: method as in PMID 31562797. Particulars: patients with metastatic melanoma; ref [13]; cited from earlier work.
Where [2] appears, read: both sexes, blood, read-out: Biodistribution, Blood, Average.
Where [3] appears, read: both sexes, brain, read-out: Biodistribution, Brain, Average.
[4] abbreviates: both sexes, heart, read-out: Biodistribution, Heart, Average.
[5] abbreviates: both sexes, kidney, read-out: Biodistribution, Kidneys, Average.
[6] abbreviates: both sexes, liver, read-out: Biodistribution, Liver, Average.
Setting [7] is: both sexes, lungs, read-out: Biodistribution, Lungs, Average.
Setting [8] is: both sexes, muscle, read-out: Biodistribution, Muscle, Average.
[9] abbreviates: both sexes, skin, read-out: Biodistribution, Skin, Average.
Setting [10] is: both sexes, spleen, read-out: Biodistribution, Spleen, Average.
Setting [11] is: both sexes, tumor, read-out: Biodistribution, Tumor, Average.
Setting [12] is: male, testes, read-out: Biodistribution, Testes, Average.

Regarding `CCCC[C@H](NC(C)=O)C(=O)N[C@H]1Cc2cn(nn2)CCCC[C@@H](C(=O)N[C@@H](CCCCNC(=O)COCCOCCNC(=O)CN2CCN(CC(=O)O)CCN(CC(N)=O)CCN(CC(=O)O)CC2)C(N)=O)NC(=O)[C@H](Cc2c[nH]c3ccccc23)NC(=O)[C@H](CCCNC(=N)N)NC(=O)[C@@H](Cc2ccccc2)NC(=O)[C@H](Cc2c[nH]cn2)NC1=O` [[^203Pb]VMT01, metal not drawn] (Ac-[Nle][Pra]H[dF]RW[Lys(N3)]K([AEEA-X1])-NH2; triazole 2-7), the tissue uptake at 0.5 h was found to be 1.1 %ID/g in series [1] (setting [2]); 0.06 %ID/g in series [1] (setting [3]); 0.66 %ID/g in series [1] (setting [4]); 12.8 %ID/g in series [1] (setting [5]); 0.64 %ID/g in series [1] (setting [6]); 2.8 %ID/g in series [1] (setting [7]). Also, the tissue uptake at 0.5 h in series [1] (setting [8]) is 0.73 %ID/g; in series [1] (setting [9]), 2.23 %ID/g; in series [1] (setting [10]) it was 0.58 %ID/g; in series [1] (setting [11]), 5.5 %ID/g; in series [1] (setting [12]), 3.23 %ID/g. Also, the tissue uptake at 1.5 h is 0.08 %ID/g in series [1] (setting [2]); 0.02 %ID/g in series [1] (setting [3]); 0.08 %ID/g in series [1] (setting [4]); 6.1 %ID/g in series [1] (setting [5]); 0.43 %ID/g in series [1] (setting [6]); 2.98 %ID/g in series [1] (setting [7]). In addition, the tissue uptake at 1.5 h stood at 0.09 %ID/g in series [1] (setting [8]); 0.27 %ID/g in series [1] (setting [9]); 0.17 %ID/g in series [1] (setting [10]); 8.9 %ID/g in series [1] (setting [11]); 0.1 %ID/g in series [1] (setting [12]). Besides, the tissue uptake at 3 h in series [1] (setting [2]) came out at 0.03 %ID/g; in series [1] (setting [3]) it was 0.01 %ID/g; in series [1] (setting [4]) it was 0.05 %ID/g; in series [1] (setting [5]), 6 %ID/g; in series [1] (setting [6]) it was 0.31 %ID/g; in series [1] (setting [7]) it was 1.34 %ID/g. Moreover, the tissue uptake at 3 h in series [1] (setting [8]) stood at 0.04 %ID/g; in series [1] (setting [9]), 0.15 %ID/g; in series [1] (setting [10]), 0.12 %ID/g; in series [1] (setting [11]), 4.5 %ID/g; in series [1] (setting [12]), 0.04 %ID/g. Besides, the tissue uptake at 6 h in series [1] (setting [2]) turned out to be 0.02 %ID/g; in series [1] (setting [3]) it was 0.01 %ID/g; in series [1] (setting [4]), 0.03 %ID/g; in series [1] (setting [5]), 5.3 %ID/g; in series [1] (setting [6]), 0.37 %ID/g; in series [1] (setting [7]) it was 1 %ID/g. Also, the tissue uptake at 6 h worked out at 0.03 %ID/g in series [1] (setting [8]); 0.17 %ID/g in series [1] (setting [9]); 0.11 %ID/g in series [1] (setting [10]); 3.8 %ID/g in series [1] (setting [11]); 0.04 %ID/g in series [1] (setting [12]). For the same molecule, the tissue uptake at 24 h turned out to be 0.01 %ID/g in series [1] (setting [2]); 0.01 %ID/g in series [1] (setting [3]); 0.02 %ID/g in series [1] (setting [4]); 2.6 %ID/g in series [1] (setting [5]); 0.22 %ID/g in series [1] (setting [6]); 0.2 %ID/g in series [1] (setting [7]). The tissue uptake at 24 h in series [1] (setting [8]) was 0.02 %ID/g; in series [1] (setting [9]) it was 0.09 %ID/g; in series [1] (setting [10]), 0.09 %ID/g; in series [1] (setting [11]) it was 1.7 %ID/g; in series [1] (setting [12]), 0.03 %ID/g.
For ipilimumab: anti-CTLA-4, the complete response rate in the series with metastatic melanoma is listed as 6%.
As to nivolumab: anti-PD1, the complete response rate in the series on metastatic melanoma is 19%.
